Tests used:
Assay type in all cases: in vivo
[1] = system: wheat powdery mildew (Blumeria graminis (DC.) Speer); assay: Whole-plant pot assay, control effect against wheat powdery mildew; conditions: spray on wheat leaves, inoculation 24 h after treatment, assessed 10 days after inoculation
Protocol: Various kinds of pathogens were tested with the compounds of the present application. Unless otherwise specified in the examples and the present application, the preparation method of samples is as follows: 10 mg of the compound was weighed and dissolved in 1 mL DMF to prepare a 10000 ppm stock solution, and the stock solution was diluted with 0.05% Tween-80 aqueous solution to the required concentrations for activity tests.
In this example, the control effects of the prepared pyrazol-5-ether compounds against wheat powdery mildew (Blumeria graminis (DC.) Speer) were tested using the following method.
A whole-plant pot assay was employed for screening. The pesticide formulation was uniformly sprayed onto wheat leaves at the first true leaf stage using a laryngeal atomizer, with three replicates per treatment. The treated plant was air-dried naturally indoors. At 24 hours post-treatment, wheat powdery mildew spores (collected approximately 10 days after inoculation) were evenly dusted onto the compound-treated wheat leaves. Disease assessment was conducted 10 days after spore inoculation when symptom development stabilized in the control group. The assessment results were recorded on a 100-0 scale, where ‘100’ indicates complete disease absence and ‘0’ represents maximum disease severity.

[2] = system: cucumber powdery mildew (Erysiphe cichoracearum); assay: Whole-plant pot assay, control effect against cucumber powdery mildew; conditions: 2.5 ppm, foliar spray on cucumber seedlings, inoculation 24 h after treatment
Protocol: In this example, the control effects of the prepared pyrazol-5-ether compounds against cucumber powdery mildew (Erysiphe cichoracearum) were tested using the following method.
(§1) A whole-plant pot assay was employed for screening. […] Greenhouse-cultivated cucumber seedlings at the two-leaf stage served as test hosts for cucumber powdery mildew (Erysiphe cichoracearum). The compounds of the present application were sprayed on the leaves at designed concentrations, and lank controls sprayed with water were also set, in triplicate. At 24 hours post-treatment, pathogen inoculation was conducted. After inoculation, the plants were maintained in controlled environment chamber for constant humidity culture (temperature: 25° C. day/20° C. night, relative humidity: 95%-99%). After 24 hours of incubation, the plants were transferred to the greenhouse. Control effect assessments were conducted on the compounds when disease symptoms fully developed in controls (typically one week). The assessment results were recorded on a 100-0 scale, where ‘100’ indicates complete disease absence and ‘0’ represents maximum disease severity.

[3] = system: soybean rust (Phakopsora pachyrhizi); assay: Whole-plant pot assay, control effect against soybean rust; conditions: foliar spray on soybean plants, inoculation 24 h after treatment
Protocol: In this example, the control effects of the prepared pyrazol-5-ether compounds against soybean rust (Phakopsora pachyrhizi) were tested using the following method.
as §1, with “soybean plants” for “cucumber seedlings”, “soybean rust (Phakopsora pachyrhizi).” for “cucumber powdery mildew (Erysiphe cichoracearum).”, “blank” for “lank”, “recorded according to the A Manual of Assessment Keys for Plant Diseases compiled by the American Phytopathological Society” for “recorded”

Compound	control effect against wheat powdery mildew ([1]; 10 ppm) [%]	control effect against wheat powdery mildew ([1]; 40 ppm) [%]	control effect against cucumber powdery mildew [2] [%]	control effect against soybean rust ([3]; 4 ppm) [%]	control effect against soybean rust ([3]; 10 ppm) [%]
CCN(C)/C=N/c1cc(C)c(Oc2cc(C(F)(F)F)nn2C)cc1C [Compound 16, (E)-N′-[4-(1-methyl-3-trifluoromethyl-1H-pyrazol-5-yloxy)-2,5-dimethylphenyl]-N-ethyl-N-met hylformamidine]	81.48	96.30	–	–	–
CCN(C)C=Nc1cc(C)c(Oc2cc(C)nn2C)cc1Cl [Compound 132]	74.07	–	–	–	–
CCN(C)C=Nc1cc(C)c(Oc2c(C)c(C)nn2C)cc1C [Compound 143]	74.07	–	–	–	–
CCN(C)/C=N/c1cc(Cl)c(Oc2cc(C(C)(C)C)nn2C)cc1C [KC1]	0	22.22	0	–	–
Cc1cc(Oc2cc(C(C)(C)C)nn2C)c(Cl)cc1/N=C/N1CCCC1 [KC2]	0	0	0	–	–
CCN(C)/C=N/c1cc(C)c(Oc2ccn(-c3ccc(Cl)cc3)n2)cc1C [KC3]	0	59.26	22.22	0	22

— patent publication US20260206759A1, “PYRAZOL-5-ETHER COMPOUND, AND PREPARATION METHOD THEREFOR AND USE THEREOF” (CAC NANTONG CHEMICAL CO., LTD., priority 2023, published 2026)
